Like-named read-outs stand apart in the source and are kept apart here.
Key:
[1] = system: GL261 cells (lower chamber; HUVEC and astrocytes barrier)
Method: (§1) Then, a peptide labeled with a fluorescent label was introduced into the upper chamber and co-incubation was carried out for 12, 24 and 36 hours. At the end of the incubation, the tumor cells were washed with cold phosphate-buffered saline (PBS) and fixed with a 4% solution of paraformaldehyde in PBS. Nuclei were stained with 4’,6-diamidino-2-phenylindole (DAPI). Fluorescent images were obtained using a Leica TCS SP8 confocal microscope (Leica, Germany). To avoid possible cross-interference of different fluorochromes, images for DAPI and FITC were obtained using a sequential sample scanning method. Fluorescently labeled cells were counted in the lower chamber. To estimate the mHsp70-mediated uptake of chaperone-targeted peptides tumor cells prior to incubation were pre-treated with anti-Hsp70 monoclonal antibodies SPA-810 (1:250, Stressgen) and SPA-815 (1:250 Stressgen). To exclude integrin (αvβ3, αvβ5)-mediated penetration of RAS70 tumor cells prior to incubation with peptides were pre-treated with anti- αvβ3 (1:200 clone LM609, ZMS1030, Sigma-Aldrich, USA), -αvβ5 (1:200 clone P1F6, MAB1961Z, Sigma-Aldrich, USA) monoclonal antibodies.
(§2) Then, a peptide labeled with a fluorescent dye (FITC) was introduced into the upper chamber and co-incubation was carried out for 12, 24 and 36 hours. At the end of the incubation, the tumor cells were washed with cold phosphate-buffered saline (PBS) and fixed with a 4% solution of paraformaldehyde in PBS. Nuclei were stained with 4’,6-diamidino-2-phenylindole (DAPI).
(§3) Data from 3 independent experiments are presented as M ± SE. […] Data from 3 independent experiments are presented as M ± SE. ** p < 0.01 for testing mean expression levels.

[2] = system: C6 cells (lower chamber; HUVEC and astrocytes barrier)
Method: as §1, §2, §3

GL261 glioma = system: GL261 glioma; set-up: species or system C57BL/6 mice; details: mouse, in vivo
Method: The animals were anesthetized with a combination of Zoletil 100 (Virbac, France) and Rometar (Bioveta, Czech Republic). Rat glioma C6 (2х10^6) and mice glioma GL261 (1х10^6) cells were injected intracranially into the area of nucl. caudatus dexter.
For evaluation of the tumor retention of the RAS70 peptide in GL261 glioma-bearing mice the animals following tumor cells injection were randomly assigned to the study groups (6 animals each) as follows (1): control group – PBS i.v. injection via tail vein (100 μL) (2); i.v. administration of […] peptide (100 μl, 2.5 mg/kg) (3); i.v. administration of NGL-RGD-sCy7.5 peptide (100 μl, 2.5 mg/kg) (4); i.v. administration of TKD-sCy7.5 peptide (100 μl, 2.5 mg/kg) (5); i.v. administration of […] peptide (100 μl, 2.5 mg/kg). Following clinical manifestation of the brain tumor progression in animals (3–4 weeks after intracranial tumor cells injection) peptides were i.v. injected and the peptides biodistribution was assessed employing IVIS in vivo Imaging System (PerkinElmer, USA). […]
Processing of the obtained luminescence images was performed using Living Image 4.7.4 firmware. The luminescence signals were read from the color maps of the obtained images by selecting the ROI contour (region of interest). […]

[3] = system: U251 cells (lower chamber; HUVEC and astrocytes barrier); assay: Transwell BBB model, peptide passage and accumulation in tumor cells; details: transwell BBB model: HUVEC (5×10^5) and astrocytes (5×10^5) in upper chamber, U251 (1×10^4) in lower chamber; FITC-labeled peptide; 36 hours; confocal microscopy count; M ± SE, 3 independent experiments
Method: as §1, §2, §3

[4] = system: GL261 cells (lower chamber; HUVEC and astrocytes barrier); assay: as above; details: transwell BBB model: HUVEC (5×10^5) and astrocytes (5×10^5) in upper chamber, GL261 (1×10^4) in lower chamber; FITC-labeled peptide; 36 hours; confocal microscopy count; M ± SE, 3 independent experiments
Method: as §1, §2, §3

[5] = system: C6 cells (lower chamber; HUVEC and astrocytes barrier); assay: as above; details: transwell BBB model: HUVEC (5×10^5) and astrocytes (5×10^5) in upper chamber, C6 (1×10^4) in lower chamber; FITC-labeled peptide; 36 hours; confocal microscopy count; M ± SE, 3 independent experiments
Method: as §1, §2, §3

SMILES | fluorescently labeled tumor cells in the lower chamber [1] [cells] | fluorescently labeled tumor cells in the lower chamber [2] [cells] | presence in normal brain tissue of animals (GL261 glioma) | rank order of organ accumulation (biodistribution) (GL261 glioma; iv) | fluorescently labeled tumor cells in the lower chamber [3] [cells] | fluorescently labeled tumor cells in the lower chamber [4] [cells] | fluorescently labeled tumor cells in the lower chamber [5] [cells]
CC(C)C[C@H](NC(=O)[C@H](CC(C)C)NC(=O)[C@H](CC(N)=O)NC(=O)[C@H](CC(N)=O)NC(=O)[C@H](CC(=O)O)NC(=O)[C@H](CCCCN)NC(=O)[C@@H](N)[C@@H](C)O)C(=O)NCC(=O)N[C@@H](CCCNC(=N)N)C(=O)N[C@@H](Cc1ccccc1)C(=O)N[C@@H](CCC(=O)O)C(=O)N[C@@H](CC(C)C)C(=O)N[C@@H](CO)C(=O)NCC(=O)NCCC(=O)N[C@@H](CCCNC(=N)N)C(=O)NCC(=O)N[C@@H](CC(=O)O)C(=O)O [RAS70] | 553 ± 61 | 567 ± 72 | non-specific presence of the RAS70 in blood vessel but not in normal brain cells | kidney > liver > small intestine > lungs | – | – | –
CC(C)C[C@H](NC(=O)[C@H](CC(C)C)NC(=O)[C@H](CC(N)=O)NC(=O)[C@H](CC(N)=O)NC(=O)[C@H](CC(=O)O)NC(=O)[C@H](CCCCN)NC(=O)[C@@H](N)[C@@H](C)O)C(=O)NCC(=O)N[C@@H](CCCNC(=N)N)C(=O)N[C@@H](Cc1ccccc1)C(=O)N[C@@H](CCC(=O)O)C(=O)N[C@@H](CC(C)C)C(=O)N[C@@H](CO)C(=O)NCC(=O)O [TKD] | – | – | – | – | 345 ± 51 | 289 ± 51 | 301 ± 35

From article PMC11973282, “RAS70 peptide targets multiforme glioblastoma by binding to the plasma membrane heat shock protein HSP70” (Frontiers in Oncology, 2025)
